Laboratory results as given in patent US20210322582A1, “RADIOACTIVE IMIDAZOTHIADIAZOLE DERIVATIVE COMPOUND” (Nihon Medi-Physics Co., Ltd., priority 2018, published 2021).
Each block holds one molecule with its values, some of them ahead of it.

What was measured:
HT-29 tumor = experiment: Biodistribution of [^111In]ITDA2 in HT-29 tumor cancer-bearing mouse; type: in vivo; conditions: from Tables 8 and 9
Description: HT-29 cells (5×10^6 cells/mouse) and MDA-MB-231 cells (1×10^7 cells/mouse) were subcutaneously inoculated into the left shoulders of 5-week old male BALB/c nude mice, respectively, and the mice were used when the tumor diameter reached 6 to 10 mm. A saline solution (100 μL) in which [^111In]ITDA2 (40 kBq) had been dissolved was administered to each of the HT-29 tumor or MDA-MB-231 tumor cancer-bearing mice (n=5) via the tail vein. The HT-29 tumor cancer-bearing mice were slaughtered after the lapse of 1, 4, 8, and 24 hours from the administration, the MDA-MB-231 tumor cancer-bearing mouse was slaughtered after the lapse of 24 hours from the administration, and the blood, spleen, pancreas, stomach, intestines, kidney, liver, heart, lungs, brain, tumor, and muscle were recovered from each of the mice. The weight of each organ was measured, and the amount of radioactivity in each organ was measured by using a gamma counter. The accumulation of radioactivity in each organ except for stomach was expressed by % injected dose/g organ obtained by dividing the ratio of the amount of radioactivity of each organ to the administered amount of radioactivity by the organ weight. The stomach was expressed by % injected dose.

CA-IX [1] = molecular target: T1, CA-IX (Homo sapiens, UniProt Q16790); experiment: In vitro autoradiography of tumor sections using [^123I]HIC205; type: binding; set-up: Fresh-frozen sections (each 14 μm) were prepared from a tumor having a tumor volume of around 200 mm^3; from tissue
Description: Fresh-frozen sections (each 14 μm) were prepared from a tumor having a tumor volume of around 200 mm^3, and then the prepared fresh-frozen sections were sufficiently air dried. The dried fresh-frozen sections were immersed in Tris-buffered saline (TBS), and then immersed in a TBS adjusted so as to have 5 kBq/ml of [^123I]HIC205 and a solution containing 400 μM acetazolamide in the TBS (both contained 0.1% dimethyl sulfoxide (DMSO)), and both the sections were incubated at the same time (at 37° C. for 30 minutes). After that, the resultant sections were washed with TBS and 40% ethanol (EtOH)-containing TBS, respectively, and then air dried. The air-dried sections were each brought into contact with an imaging plate (IP), and were read out by a bioimaging analyzer BAS2000 (manufactured by FUJIFILM Corporation). The section used for autoradiography (ARG) was directly subjected to immunohistochemistry that was performed by using a goat-derived anti-CA-IX antibody.
The localization of the radioactivity of [^123I]HIC205 and the difference in the binding of [^123I]HIC205 between the individual treatments are shown FIG. 1.
The results of the comparison of the localization of the radioactivity of [^123I]HIC205 with the expression of CA-IX are shown in FIGS. 2A and 2B. […] The region between two arrows indicates the part where the binding of [^123I]HIC205 and the expression of CA-IX are not consistent. Further, FIG. 2B is an enlarged view showing the region between the two arrows of the result of immunohistochemical staining of animal B shown in the lower left of FIG. 2A, in which the result of immunohistochemical staining of FIG. 2A was shown on the left side, and an enlarged view of the region between the two arrows was shown on the right side. The parts indicated by the arrows indicate the overlap of the section.

CA-IX [2] = molecular target: T1, CA-IX; experiment: Affinity of non-radioactive HIC205 for CA-IX measured by Biacore; type: binding; set-up: purchased R&D Systems Inc
Description: The affinity was measured by using Biacore (manufactured by GE Healthcare). Human CA-IX (manufactured by R&D Systems Inc.) was immobilized on a sensor chip (CM7) by an amino coupling method. After non-radioactive HIC205 was dissolved in 100% dimethyl sulfoxide (DMSO), the obtained solution was diluted with a running buffer in a stepwise manner by 10 times, and a non-radioactive HIC205 solution containing 0.1% DMSO was finally prepared. Based on this, a 2-fold dilution series was prepared with the running buffer containing 0.1% DMSO, and the measurement was performed. In this regard, the composition of the running buffer was 0.01 M HEPES (pH 7.4), 0.15M sodium chloride, and 0.005% v/v Surfactant P20. The sensorgram obtained from each concentration was directly curve fitted by a non-linear least-squares method, and the affinity was calculated.

Tumor/muscle ratio compared with ITDA1 (HT-29 tumor): almost the same value as that of ITDA1
SMILES: NS(=O)(=O)c1nn2cc(-c3ccc(NC(=O)CN4CCN(CC(=O)O)CCN(CC(=O)Nc5ccc(-c6cn7nc(S(N)(=O)=O)sc7n6)cc5)CCN(CC(=O)O)CC4)cc3)nc2s1 [ITDA2, 2,2′-(4,10-bis(2-oxo-2-((4-(2-sulfamoylimidazo[2,1-b][1,3,4]thiadiazol-6-yl)phenyl)amino)ethyl)-1,4,7,10-tetraazacyclododecan-1,7-diyl) diacetic acid]
Tumor accumulation compared with ITDA1 (HT-29 tumor): lower values as compared with those of ITDA1 | Tumor/blood ratio compared with ITDA1 (HT-29 tumor): lower values as compared with those of ITDA1

Binding on the tumor section with simultaneous incubation with acetazolamide (CA-IX [1]; 400 μM acetazolamide): decreased | Localization of the radioactivity after washing the section with 40% ethanol (CA-IX [1]; 40% ethanol-containing TBS wash): significantly reduced | Binding ability to CA-IX (CA-IX [1]; conclusion of autoradiography): has binding ability to CA-IX | Localization of radioactivity compared with expression site of CA-IX (immunohistochemical staining) (CA-IX [1]; two animals): mostly consistent
SMILES: NS(=O)(=O)c1nn2cc(-c3ccc([123I])cc3)nc2s1 [[^123I]HIC205]
Binding on the tumor section (autoradiogram) (CA-IX [1]; 5 kBq/ml, 37° C. for 30 minutes, washed with TBS): confirmed with contrast on the tumor section

Kd (CA-IX [2]; immobilized human CA-IX, n = 1): 109 pM | Dissociation constant (×10^−3) (CA-IX [2]; n = 1): 0.903 ×10^−3 [1/s] | kon (CA-IX [2]; n = 1, read-out: Binding constant (×10^5)): 8.31e+06 M⁻¹ s⁻¹
SMILES: NS(=O)(=O)c1nn2cc(-c3ccc(I)cc3)nc2s1 [non-radioactive HIC205, 6-(4-iodophenyl)imidazo[2,1-b][1,3,4]thiadiazole-2-sulfonamide]
